According to ChEMBL document CHEMBL1201862, “PubChem BioAssay data set” (2004):
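Five concentrations, 48 hours, 96-well plates. GI50 is the concentration that inhibits growth by half.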 Active and inactive are the calls of the source. Cut-off read from the data, not from the text of the source: active = GI50 up to about 1.1 µM and inactive = higher.

Legend:
Assay in all cases: growth of human tumour cells (NCI), 48 h
SF-539 = tested on: SF-539
SNB-75 = tested on: SNB-75
UO-31 = tested on: UO-31
SW-620 = tested on: SW-620
HOP-62 = tested on: HOP-62
OVCAR-3 = tested on: OVCAR-3
ACHN = tested on: ACHN
MOLT-4 = tested on: MOLT-4
HL-60 = tested on: HL-60
COLO 205 = tested on: COLO 205
A498 = tested on: A498
SF-268 = tested on: SF-268
KM12 = tested on: KM12
SF-295 = tested on: SF-295
786-0 = tested on: 786-0
SR = tested on: SR

| Compound | GI50 (SF-539) | GI50 (SNB-75) | GI50 (UO-31) | GI50 (SW-620) | GI50 (HOP-62) | GI50 (OVCAR-3) | GI50 (ACHN) | GI50 (MOLT-4) | GI50 (HL-60) | GI50 (COLO 205) | GI50 (A498) | GI50 (SF-268) | GI50 (KM12) | GI50 (SF-295) | GI50 (786-0) | GI50 (SR) |
| --- | --- | --- | --- | --- | --- | --- | --- | --- | --- | --- | --- | --- | --- | --- | --- | --- |
| O=C1OC(c2ccccc2)=N/C1=C\c1cccc2ccccc12 | > 100 µM (inactive) | > 100 µM (inactive) | > 100 µM (inactive) | > 100 µM (inactive) | > 100 µM (inactive) | > 100 µM (inactive) | > 100 µM (inactive) | > 100 µM (inactive) | > 100 µM (inactive) | > 100 µM (inactive) | > 100 µM (inactive) | > 100 µM (inactive) | > 100 µM (inactive) | > 100 µM (inactive) | > 100 µM (inactive) | > 100 µM (inactive) |
| O=C1C[C@@H]2[C@@H](CCC23CC3)N1 | > 100 µM (inactive) | > 100 µM (inactive) | > 100 µM (inactive) | > 100 µM (inactive) | > 100 µM (inactive) | > 100 µM (inactive) |  | > 10 µM (inactive) | > 100 µM (inactive) | > 100 µM (inactive) | > 100 µM (inactive) | > 100 µM (inactive) | > 100 µM (inactive) | > 100 µM (inactive) | > 100 µM (inactive) |  |
| O=C(CCN1CCCC1)CC(c1ccccc1)c1c(O)c2ccccc2oc1=O (centres undefined) |  | > 100 µM (inactive) | > 100 µM (inactive) | > 100 µM (inactive) | > 100 µM (inactive) | > 100 µM (inactive) | > 100 µM (inactive) | > 100 µM (inactive) | > 100 µM (inactive) | > 100 µM (inactive) |  | > 100 µM (inactive) | > 100 µM (inactive) | > 100 µM (inactive) | > 100 µM (inactive) | > 100 µM (inactive) |
| CCCOC(=O)C1CCC(=O)N1C(=O)C(Cl)Cl (centres undefined) |  | 59 µM (inactive) | > 100 µM (inactive) | > 100 µM (inactive) | > 100 µM (inactive) | > 100 µM (inactive) | > 100 µM (inactive) | > 100 µM (inactive) | > 100 µM (inactive) | > 100 µM (inactive) | > 100 µM (inactive) | > 100 µM (inactive) | > 100 µM (inactive) | > 100 µM (inactive) | > 100 µM (inactive) |  |
| Cn1c(N)nc(=O)c2c1N(C1OC(CO)C(O)C1O)CN2Cc1ccccc1 (centres undefined) | > 100 µM (inactive) | > 100 µM (inactive) | > 100 µM (inactive) | > 100 µM (inactive) | > 100 µM (inactive) | > 100 µM (inactive) | > 100 µM (inactive) | > 100 µM (inactive) | > 100 µM (inactive) | > 100 µM (inactive) | > 100 µM (inactive) | > 100 µM (inactive) | > 100 µM (inactive) | > 100 µM (inactive) | > 100 µM (inactive) | > 100 µM (inactive) |
| CC(=O)c1sc(-c2nc(C)c(C(=O)/C=C\c3ccc(/C=C\C(=O)c4sc(-c5nc(C)c(C(C)=O)s5)nc4C)cc3)s2)nc1C | > 100 µM (inactive) |  | > 100 µM (inactive) | > 100 µM (inactive) | > 100 µM (inactive) | > 100 µM (inactive) | > 100 µM (inactive) | > 100 µM (inactive) | > 100 µM (inactive) | > 100 µM (inactive) |  | > 100 µM (inactive) | > 100 µM (inactive) | > 100 µM (inactive) | > 100 µM (inactive) | > 100 µM (inactive) |
| COc1ccc(Cc2c(=O)[nH]nc3ccccc23)cc1 | > 100 µM (inactive) | 29 µM (inactive) | 43.8 µM (inactive) | > 100 µM (inactive) | > 100 µM (inactive) | > 100 µM (inactive) | > 100 µM (inactive) | > 100 µM (inactive) |  | > 100 µM (inactive) | > 100 µM (inactive) | > 100 µM (inactive) | > 100 µM (inactive) | > 100 µM (inactive) | > 100 µM (inactive) |  |
| Cc1cc(Cl)ccc1N1C(=O)C(=O)C(c2nc3ccccc3s2)/C(=N\NC(=O)c2ccccc2O)C1=O (centres undefined) | > 100 µM (inactive) | > 100 µM (inactive) | > 100 µM (inactive) | > 100 µM (inactive) | > 100 µM (inactive) | > 100 µM (inactive) | > 100 µM (inactive) |  | > 100 µM (inactive) | > 100 µM (inactive) | > 100 µM (inactive) | > 100 µM (inactive) | > 100 µM (inactive) | > 100 µM (inactive) | > 100 µM (inactive) | > 100 µM (inactive) |
| [O-][S+]1c2ccccc2N=C(c2cccs2)CC1c1ccccc1O (centres undefined) | > 100 µM (inactive) | 32.4 µM (inactive) | > 100 µM (inactive) | > 100 µM (inactive) | 97.5 µM (inactive) | > 100 µM (inactive) | > 100 µM (inactive) | > 100 µM (inactive) | > 100 µM (inactive) | > 100 µM (inactive) | 25.4 µM (inactive) | > 100 µM (inactive) | 93.5 µM (inactive) | 70.3 µM (inactive) | > 100 µM (inactive) |  |
| CN(C)CC(C)(C)C(=O)/C=C/c1ccc(/C=C/C(=O)C(C)(C)CN(C)C)cc1 | 2.13 µM (inactive) | 1.58 µM (inactive) | 1.99 µM (inactive) | 0.706 µM (active) | 2.14 µM (inactive) | 1.29 µM (inactive) | 1.47 µM (inactive) | 0.519 µM (active) | 1.61 µM (inactive) | 1.03 µM (active) | 1.9 µM (inactive) | 1.35 µM (inactive) | 1.85 µM (inactive) | 2.05 µM (inactive) | 1.6 µM (inactive) | 2.28 µM (inactive) |
| Cc1ccc(-c2cc(=O)c3cc(C)c(C)c(C(=O)O)c3o2)cc1[N+](=O)[O-] | > 100 µM (inactive) | > 100 µM (inactive) | > 100 µM (inactive) | > 100 µM (inactive) |  | > 100 µM (inactive) | > 100 µM (inactive) | > 100 µM (inactive) |  | > 100 µM (inactive) |  | > 100 µM (inactive) | > 100 µM (inactive) | > 100 µM (inactive) | > 100 µM (inactive) |  |
| Cc1nc2ccc(N)cc2nc1O | > 100 µM (inactive) |  | > 100 µM (inactive) | > 100 µM (inactive) | > 100 µM (inactive) | > 100 µM (inactive) | > 100 µM (inactive) | > 100 µM (inactive) | > 100 µM (inactive) | > 100 µM (inactive) | > 100 µM (inactive) |  | > 100 µM (inactive) | > 100 µM (inactive) | > 100 µM (inactive) |  |
| O=C(O)OC12CCCCCC1C(=O)C1CCCCC12 (centres undefined) |  | 20.1 µM (inactive) | > 100 µM (inactive) | > 100 µM (inactive) | > 100 µM (inactive) |  | > 100 µM (inactive) | 46 µM (inactive) | 47 µM (inactive) | > 100 µM (inactive) |  | 61.5 µM (inactive) | > 100 µM (inactive) | > 100 µM (inactive) | > 100 µM (inactive) | 47 µM (inactive) |
| COc1cccc2c1N[S@](=O)S2 | > 100 µM (inactive) | 81.5 µM (inactive) | 42 µM (inactive) | > 100 µM (inactive) |  | > 100 µM (inactive) | > 100 µM (inactive) | 42.1 µM (inactive) | > 100 µM (inactive) |  |  | 76 µM (inactive) | > 100 µM (inactive) | 95.7 µM (inactive) | > 100 µM (inactive) | 70.6 µM (inactive) |
| O=C(NCC(O)CNC(=O)C(F)(F)F)C(F)(F)F | > 100 µM (inactive) | > 100 µM (inactive) | > 100 µM (inactive) | > 100 µM (inactive) | > 100 µM (inactive) | > 100 µM (inactive) |  | > 100 µM (inactive) | > 100 µM (inactive) | > 100 µM (inactive) | > 100 µM (inactive) | > 100 µM (inactive) | > 100 µM (inactive) | > 100 µM (inactive) | > 100 µM (inactive) | > 100 µM (inactive) |
| CCCCn1c2ccccc2c2ccc3c(c21)C(=O)C=CC3=O | > 100 µM (inactive) | 0.0521 µM (active) | 62.2 µM (inactive) | > 100 µM (inactive) | > 100 µM (inactive) | > 100 µM (inactive) | > 100 µM (inactive) | 54.8 µM (inactive) |  | > 100 µM (inactive) | > 100 µM (inactive) | > 100 µM (inactive) | > 100 µM (inactive) | > 100 µM (inactive) | > 100 µM (inactive) | > 100 µM (inactive) |
| Cc1ccc(N2C(=O)CS/C2=C(\C#N)c2nc3ccccc3[nH]2)cc1 | > 100 µM (inactive) | > 100 µM (inactive) | > 100 µM (inactive) | > 100 µM (inactive) | > 100 µM (inactive) | > 100 µM (inactive) | > 100 µM (inactive) | > 100 µM (inactive) | > 100 µM (inactive) | > 100 µM (inactive) | > 100 µM (inactive) | > 100 µM (inactive) | > 100 µM (inactive) |  | > 100 µM (inactive) | > 100 µM (inactive) |
| Cc1ccccc1SC(/C=C/NNC1=NN=C(c2ccccc2)C(c2ccccc2)N1)c1ccccc1 (centres undefined) | 13.4 µM (inactive) | 5.68 µM (inactive) | 16.9 µM (inactive) | 27.7 µM (inactive) | 17.7 µM (inactive) | 13.7 µM (inactive) | 15.4 µM (inactive) | 41.7 µM (inactive) | > 10 µM (inactive) | 36.4 µM (inactive) | 23.7 µM (inactive) | 24.9 µM (inactive) | 28.4 µM (inactive) | 18.8 µM (inactive) | 11.9 µM (inactive) |  |
| CSC(=S)c1ccc(C(=S)SC)cc1 | > 100 µM (inactive) | > 100 µM (inactive) | > 100 µM (inactive) | > 100 µM (inactive) | > 100 µM (inactive) | > 100 µM (inactive) |  | > 100 µM (inactive) | > 100 µM (inactive) | > 100 µM (inactive) | > 100 µM (inactive) | > 100 µM (inactive) | > 100 µM (inactive) | > 100 µM (inactive) | > 100 µM (inactive) | > 100 µM (inactive) |
